# Source: ChEMBL document CHEMBL1125127 (J Med Chem, 1990)
# Key:
# [1] = system: Canis familiaris; assay: Percent change in blood pressure (BP) from control at active dose 1.0-10 mg/kg administered intravenously in anesthetized dogs
# [2] = system: Canis familiaris; assay: Percent change in FRP from control at active dose 1.0-10 mg/kg administered intravenously
# [3] = target: Beta-2 adrenergic receptor (Canis lupus familiaris, UniProt P54833); assay: Beta2-receptor selectivity in canine lung tissue in anesthetized dogs; format: functional
# Beta-2 adrenergic receptor, sequence (P54833 whole entry): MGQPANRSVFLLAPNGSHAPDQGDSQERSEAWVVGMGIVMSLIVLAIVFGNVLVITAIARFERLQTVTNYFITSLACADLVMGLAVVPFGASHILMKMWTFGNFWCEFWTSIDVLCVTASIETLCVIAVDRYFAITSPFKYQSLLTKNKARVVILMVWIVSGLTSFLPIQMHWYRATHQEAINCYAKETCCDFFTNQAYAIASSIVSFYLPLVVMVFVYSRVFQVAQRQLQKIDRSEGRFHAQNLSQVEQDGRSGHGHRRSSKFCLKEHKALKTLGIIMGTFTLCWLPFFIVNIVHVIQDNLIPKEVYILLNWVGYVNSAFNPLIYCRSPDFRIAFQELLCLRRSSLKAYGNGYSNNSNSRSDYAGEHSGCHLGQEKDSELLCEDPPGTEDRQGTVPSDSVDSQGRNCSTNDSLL
# [4] = system: Canis familiaris; assay: Percent change in heart rate (HR) from control at active dose 1.0-10 mg/kg administered intravenously in conscious dogs
# [5] = system: Canis familiaris; assay: Concentration that causes a 20% increase in APD95 (action potential duration at 95% repolarization) from control value in anesthetized dogs; format: functional, Canis lupus familiaris
# [6] = system: Canis familiaris; assay: Maximum change in […] from control value in anesthetized dogs; 10 uM.; format: functional, Canis lupus familiaris
smiles,measurement,setting,value
Cc1cccc(OCC(O)CNCCOc2ccc(-n3ccnc3)cc2)c1 (stereo unspecified),Change,[1],-4%
same,Change,[2],9%
same,IC50,[3],510 nM
same,Change,[4],-12%
same,C20 APD95,[5],10 µM
same,Max delta,[6],35%
